Results as given in patent US11478478B2, “2,3-disubstituted 1-acyl-4-amino-1,2,3,4-tetrahydroquinoline derivatives and their use as bromodomain inhibitors” (GLAXOSMITHKLINE INTELLECTUAL PROPERTY (NO.2) LIMITED, priority 2013, dated 2022).
Structures can show the parent of a compound that is named as a salt.

Molecular target: T1, BRD4 BD2 (Homo sapiens, UniProt O60885, Y97A)
T1 construct: BRD4 (1-477) (Y97A) and (Y390A); made in house; host or cells: E. coli (pET15b vector)
Assay: TR-FRET binding assay, BRD4 BD2 (BD1-mutated protein)
Settings: read-out: pIC50 in the BRD4 BD2 assay (converted)
Description: Time Resolved Fluorescence Resonance Energy Transfer (TR-FRET) Assay Binding was assessed using a time resolved fluorescent resonance energy transfer binding assay. This utilises a 6 His purification tag at the N-terminal of the proteins as an epitope for an anti-6 His antibody labeled with Europium chelate (PerkinElmer AD0111) allowing binding of the Europium to the proteins which acts as the donor fluorophore. A small molecule, high affinity binder of the bromodomains BRD2, BRD3, BRD4 and BRDT has been labeled with Alexa Fluor647 (Reference Compound X) and this acts as the acceptor in the FRET pair.
In the absence of a competing compound, excitation of the Europium causes the donor to emit at λ618 nm which excites the Alexa labelled bromodomain binding compound leading to an increased energy transfer that is measurable at λ647 nM. In the presence of a sufficient concentration of a compound that can bind these proteins, the interaction is disrupted leading to a quantifiable drop in fluorescent resonance energy transfer.
The binding of the compounds of formula (I) to Bromodomains BRD2, BRD3, BRD4 and BRDT was assessed using mutated proteins to detect differential binding to either Binding Domain 1 (BD1) or Binding Domain 2 (BD2) on the bromodomain. These single residue mutations in the acetyl lysine binding pocket greatly lower the affinity of the fluoroligand (Reference Compound X) for the mutated domain (>1000 fold selective for the non-mutated domain). Therefore in the final assay conditions, binding of the fluoroligand to the mutated domain cannot be detected and subsequently the assay is suitable to determine the binding of compounds to the single non-mutated bromodomain.
Recombinant Human Bromodomains [(BRD2 (1-473) (Y113A) and (Y386A), BRD3 (1-435) (Y73A) and (Y348A) BRD4 (1-477) (Y97A) and (Y390A) and BRDT (1-397) (Y66A) and (Y309A)] were expressed in E. coli cells (in pET15b vector for BRD2/3/4 and in pET28a vector for BRDT) with a 6-His tag at the N-terminal. The His-tagged Bromodomain pellet was resuspended in 50 mM HEPES (pH7.5), 300 mM NaCl, 10 mM imidazole & 1 μl/ml protease inhibitor cocktail and extracted from the E. coli cells using sonication and purified using a nickel sepharose high performance column, the proteins were washed and then eluted with a linear gradient of 0-500 mM imidazole with buffer 50 mM HEPES (pH7.5), 150 mM NaCl, 500 mM imidazole, over 20 column volumes. Final purification was completed by Superdex 200 prep grade size exclusion column. Purified protein was stored at −80° C. in 20 mM HEPES pH 7.5 and 100 mM NaCl. Protein identity was confirmed by peptide mass fingerprinting and predicted molecular weight confirmed by mass spectrometry.
All assay components were dissolved in buffer composition of 50 mM HEPES pH7.4, 50 mM NaCl, 5% Glycerol, 1 mM DTT and 1 mM CHAPS. The final concentration of bromodomain proteins were 10 nM and the Alexa Fluor647 ligand was at Kd. These components were premixed and 5 μl of this reaction mixture was added to all wells containing 50 nl of various concentrations of test compound or DMSO vehicle (0.5% DMSO final) in Greiner 384 well black low volume microtitre plates and incubated in dark for 30 minutes at rt. 5 μl of detection mixture containing 1.5 nM final concentration anti-6His Europium chelate was added to all wells and a further dark incubation of at least 30 minutes was performed. Plates were then read on the Envision platereader, (λex=317 nm, donor λem=615 nm; acceptor λem=665 nm; Dichroic LANCE dual). Time resolved fluorescent intensity measurements were made at both emission wavelengths and the ratio of acceptor/donor was calculated and used for data analysis. All data was normalized to the mean of 16 high (inhibitor control—Example 11 of WO 2011/054846A1) and 16 low (DMSO) control wells on each plate. A four parameter curve fit of the following form was then applied: y=a+((b−a)/(1+(10^/10^)^d) […]

| Compound | IC50 [nM] |
| --- | --- |
| CNC(=O)c1ccc2c(c1)[C@H](Nc1ccc(C#N)cc1)[C@@H](C)[C@H](C1CC1)N2C(C)=O (racemic) [Example 243, rac-(2S,3R,4R)-1-acetyl-4-((4-cyanophenyl)amino)-2-cyclopropyl-N,3-dimethyl-1,2,3,4-tetrahydroquinoline-6-carboxamide] | 100 |
| CNC(=O)c1ccc(N[C@@H]2c3cc(C4=CCOCC4)ccc3N(C(C)=O)[C@H](C3CC3)[C@H]2C)cc1 (single isomer, unassigned) [Example 551a] | 1000 to 100000 |
| Cc1ccnc(N[C@H]2c3cc(C(N)=O)ccc3N(C(=O)C(C)C)[C@@H](C3CC3)[C@@H]2C)n1 [Example 422, (2S,3R,4R)-2-cyclopropyl-1-isobutyryl-3-methyl-4-((4-methylpyrimidin-2-yl)amino)-1,2,3,4-tetrahydroquinoline-6-carboxamide] | 1000 to 100000 |
| CC[C@H]1[C@H](C)[C@@H](Nc2ccc(C#N)cc2)c2cc(F)ccc2N1C(C)=O (racemic) [Example 62, rac-4-(((2S,3R,4R)-1-acetyl-2-ethyl-6-fluoro-3-methyl-1,2,3,4-tetrahydroquinolin-4-yl)amino)benzonitrile] | 100 |
| COC[C@H]1[C@H](C)[C@@H](Nc2ccccc2)c2ccccc2N1C(C)=O (racemic) [Example 54, rac-1-((2R,3R,4R)-2-(methoxymethyl)-3-methyl-4-(phenylamino)-3,4-dihydroquinolin-1(2H)-yl)ethanone] | 1000 to 100000 |
| COc1ccc(N[C@H]2c3cc(C(N)=O)ccc3N(C(C)=O)[C@@H](C3CC3)[C@@H]2C)c(C#N)c1 [Example 392, (2S,3R,4R)-1-acetyl-4-((2-cyano-4-methoxyphenyl)amino)-2-cyclopropyl-3-methyl-1,2,3,4-tetrahydroquinoline-6-carboxamide] | 100 |
| CC(=O)N1c2ccc(C#N)cc2[C@H](Nc2cccc(CN(C)C)n2)[C@@H](C)[C@@H]1C1CC1 [Example 298, (2S,3R,4R)-1-acetyl-2-cyclopropyl-4-((6-((dimethylamino)methyl)pyridin-2-yl)amino)-3-methyl-1,2,3,4-tetrahydroquinoline-6-carbonitrile] | 1000 to 100000 |
| CC(=O)N1c2ccc(F)cc2[C@H](Nc2ccnc(O)n2)[C@@H](C)[C@@H]1C1CC1 [Example 519, 1-((2S,3R,4R)-2-cyclopropyl-6-fluoro-4-((2-hydroxypyrimidin-4-yl)amino)-3-methyl-3,4-dihydroquinolin-1(2H)-yl)ethanone] | 1000 to 100000 |
| CC[C@@H]1[C@@H](C)[C@H](Nc2cccc(C)n2)c2cc(F)ccc2N1C(C)=O (single isomer, unassigned) [Example 146b] | 1000 to 100000 |
| CC(=O)N1c2ccc(C(=O)NC3COC3)cc2[C@H](Nc2ncccn2)[C@@H](C)[C@@H]1C1CC1 [Example 488, (2S,3R,4R)-1-acetyl-2-cyclopropyl-3-methyl-N-(oxetan-3-yl)-4-(pyrimidin-2-ylamino)-1,2,3,4-tetrahydroquinoline-6-carboxamide] | 100 |
| CC(=O)N1c2ccc(F)cc2[C@H](Nc2ccc(F)cn2)[C@@H](C)[C@@H]1C (racemic) [Example 141, rac-1-((2S,3R,4R)-6-fluoro-4-((5-fluoropyridin-2-yl)amino)-2,3-dimethyl-3,4-dihydroquinolin-1(2H)-yl)ethanone] | 100 |
| COc1ccc(N[C@H]2c3ccccc3N(C(C)=O)[C@@H](C)[C@@H]2C)cc1 (racemic) [Example 15, rac-1-((2S,3R,4R)-4-((4-methoxyphenyl)amino)-2,3-dimethyl-3,4-dihydroquinolin-1(2H)-yl)ethanone] | 100 |
| CC(=O)N1c2ccccc2[C@H](Nc2ccc(C#N)cc2)[C@@H](C)[C@@H]1C1CC1 (racemic) [Example 30, rac-4-(((2S,3R,4R)-1-Acetyl-2-cyclopropyl-3-methyl-1,2,3,4-tetrahydroquinolin-4-yl)amino)benzonitrile] | 100 |
| CC[C@H]1[C@H](C)[C@@H](Nc2cccc(C)n2)c2cc(F)ccc2N1C(C)=O (single isomer, unassigned) [Example 146a] | 100 |
| CC(=O)N1c2ccc(C(N)=O)cc2[C@H](Nc2cnc(C#N)c(Cl)c2)[C@@H](C)[C@@H]1C1CC1 [Example 391, (2S,3R,4R)-1-acetyl-4-((5-chloro-6-cyanopyridin-3-yl)amino)-2-cyclopropyl-3-methyl-1,2,3,4-tetrahydroquinoline-6-carboxamide] | 1000 to 100000 |
| CC(=O)N1c2ccccc2[C@H](Nc2ccc(Cl)cc2)[C@@H](C)[C@@H]1C (racemic) [Example 13, rac-1-((2S,3R,4R)-4-((4-chlorophenyl)amino)-2,3-dimethyl-3,4-dihydroquinolin-1(2H)-yl)ethanone] | 100 |
| CC(=O)N1c2cnccc2[C@H](Nc2ccccc2)[C@@H](C)[C@@H]1C (racemic) [Example 115, rac-1-((2S,3R,4R)-2,3-dimethyl-4-(phenylamino)-3,4-dihydro-1,7-naphthyridin-1(2H)-yl)ethanone formate] | 100 |

Other lines, results leading:

| IC50 [nM] | Compound |
| --- | --- |
| 1000 to 100000 | CC(=O)N1c2ccccc2[C@H](Nc2ccc(C(=O)O)cc2)[C@@H](C)[C@@H]1C1CC1 (racemic) [Example 127, rac-4-(((2S,3R,4R)-1-acetyl-2-cyclopropyl-3-methyl-1,2,3,4-tetrahydroquinolin-4-yl)amino)benzoic acid] |
| 100 | CC(=O)N1c2ccc(C(=O)NC3CCOCC3)cc2[C@H](Nc2ccc(F)cn2)[C@@H](C)[C@@H]1C1CC1 [Example 469, (2S,3R,4R)-1-acetyl-2-cyclopropyl-4-((5-fluoropyridin-2-yl)amino)-3-methyl-N-(tetrahydro-2H-pyran-4-yl)-1,2,3,4-tetrahydroquinoline-6-carboxamide] |
| 100 | CC(=O)N1c2ccc(C#N)cc2[C@H](Nc2ncccc2C(N)=O)[C@@H](C)[C@@H]1C1CC1 [Example 314, 2-(((2S,3R,4R)-1-acetyl-6-cyano-2-cyclopropyl-3-methyl-1,2,3,4-tetrahydroquinolin-4-yl)amino)nicotinamide] |
| 100 | CC[C@H]1[C@H](C)[C@@H](Nc2ccc(C#N)cn2)c2cc(C(=O)NC)ccc2N1C(C)=O (racemic) [Example 237, rac-(2S,3R,4R)-1-acetyl-4-((5-cyanopyridin-2-yl)amino)-2-ethyl-N,3-dimethyl-1,2,3,4-tetrahydroquinoline-6-carboxamide] |
| 100 | CC(=O)N1c2ccc(C#N)cc2[C@H](Nc2cccc(OCCN)n2)[C@@H](C)[C@@H]1C1CC1 [Example 318, (2S,3R,4R)-1-acetyl-4-((6-(2-aminoethoxy)pyridin-2-yl)amino)-2-cyclopropyl-3-methyl-1,2,3,4-tetrahydroquinoline-6-carbonitrile] |
| 100 | CNC(=O)c1ccc2c(c1)[C@H](Nc1ccc(C#N)cn1)[C@@H](C)[C@H](C)N2C(C)=O (racemic) [Example 230, rac-(2S,3R,4R)-1-acetyl-4-((5-cyanopyridin-2-yl)amino)-N,2,3-trimethyl-1,2,3,4-tetrahydroquinoline-6-carboxamide] |
| 1000 to 100000 | CC(=O)N1c2ccc(C3=CCNCC3)cc2[C@@H](Nc2cccc(C)n2)[C@H](C)[C@H]1C1CC1 (single isomer, unassigned) [Example 189b] |
| 100 | CCNC(=O)c1ccc2c(c1)[C@H](Nc1cccc(C)n1)[C@@H](C)[C@H](CC)N2C(C)=O (racemic) [Example 279, rac-(2S,3R,4R)-1-acetyl-N,2-diethyl-3-methyl-4-((6-methylpyridin-2-yl)amino)-1,2,3,4-tetrahydroquinoline-6-carboxamide] |
